Earlier results, collected in US20080279914A1, “Transdermal composition comprising piroxicam-inorganic material complex and patch system comprising the same” (priority 2006, published 2008).

Settings: orally administered

drug discharged unchanged in the urine: less than 5%
Compound: CN1C(C(=O)Nc2ccccn2)=C(O)c2ccccc2S1(=O)=O [piroxicam]
